Measurements from PubChem BioAssay AID2060908 (Molecular Pharmacology Branch, DTP, NCI, 2025).

Test system: 186277-243-T-J2-PDC complex spheroids, viability
Assay: Anticancer human tumor 186277-243-T-J2-PDC patient-derived colon adenocarcinoma cell line growth inhibition [RAS]
Details: for IC50: curve of first compound; for viability, T/C: stronger effect = lower value; active = viability on the fitted dose curve at most 10% of control; inactive = the rest
In short: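 Agents were tested in combination matrices in half-log decrements from a top concentration at or near clinical Cmax (10 microM if undetermined). Targets were multi-cell spheroids of tumour lines plus HUVEC and MSC stromal cells.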
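Note: spheroids exposed to compounds for 7 days before viability read.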

CCN1CCN(Cc2ccc(Nc3ncc(F)c(-c4cc(F)c5nc(C)n(C(C)C)c5c4)n3)nc2)CC1 + C=CC(=O)N1CCN(c2nc(OCC3CCCN3C)nc3c(F)c(-c4nc(N)cc(C)c4C(F)(F)F)c(Cl)cc23)C(C)C1
inactive: viability, T/C (second compound 0.00316 µM, first compound 0.00316 µM) 136% | viability, T/C (second compound 0.00316 µM, first compound 0.01 µM) 129% | viability, T/C (second compound 0.00316 µM, first compound 0.0316 µM) 141% | viability, T/C (second compound 0.00316 µM, first compound 0.1 µM) 114% | viability, T/C (second compound 0.00316 µM, first compound 0.316 µM) 125% | viability, T/C (second compound 0.00316 µM, first compound 1 µM) 99.5% | viability, T/C (second compound 0.01 µM, first compound 0.00316 µM) 87.9% | viability, T/C (second compound 0.01 µM, first compound 0.01 µM) 108% | viability, T/C (second compound 0.01 µM, first compound 0.0316 µM) 127% | viability, T/C (second compound 0.01 µM, first compound 0.1 µM) 99.7% | viability, T/C (second compound 0.01 µM, first compound 0.316 µM) 121% | viability, T/C (second compound 0.01 µM, first compound 1 µM) 92.9% | viability, T/C (second compound 0.0316 µM, first compound 0.00316 µM) 94.6% | viability, T/C (second compound 0.0316 µM, first compound 0.01 µM) 107% | viability, T/C (second compound 0.0316 µM, first compound 0.0316 µM) 119% | viability, T/C (second compound 0.0316 µM, first compound 0.1 µM) 154% | viability, T/C (second compound 0.0316 µM, first compound 0.316 µM) 114% | viability, T/C (second compound 0.0316 µM, first compound 1 µM) 101% | viability, T/C (second compound 0.1 µM, first compound 0.00316 µM) 101% | viability, T/C (second compound 0.1 µM, first compound 0.01 µM) 112% | viability, T/C (second compound 0.1 µM, first compound 0.0316 µM) 142% | viability, T/C (second compound 0.1 µM, first compound 0.1 µM) 149% | viability, T/C (second compound 0.1 µM, first compound 0.316 µM) 138% | viability, T/C (second compound 0.1 µM, first compound 1 µM) 79.3% | viability, T/C (second compound 0.316 µM, first compound 0.00316 µM) 90.3% | viability, T/C (second compound 0.316 µM, first compound 0.01 µM) 106% | viability, T/C (second compound 0.316 µM, first compound 0.0316 µM) 117% | viability, T/C (second compound 0.316 µM, first compound 0.1 µM) 115% | viability, T/C (second compound 0.316 µM, first compound 0.316 µM) 152% | viability, T/C (second compound 0.316 µM, first compound 1 µM) 97.8% | viability, T/C (second compound 1 µM, first compound 0.00316 µM) 117% | viability, T/C (second compound 1 µM, first compound 0.01 µM) 112% | viability, T/C (second compound 1 µM, first compound 0.0316 µM) 122% | viability, T/C (second compound 1 µM, first compound 0.1 µM) 140% | viability, T/C (second compound 1 µM, first compound 0.316 µM) 135% | viability, T/C (second compound 1 µM, first compound 1 µM) 105%
> 1000 nM: IC50 (second compound 0.00316 µM) | IC50 (second compound 0.01 µM) | IC50 (second compound 0.0316 µM) | IC50 (second compound 0.1 µM) | IC50 (second compound 0.316 µM) | IC50 (second compound 1 µM)
